{"source": "patent EP2684879A1", "about": "“Substituted mesoionic compounds for combating animal pests” (priority 2012, dated 2014)", "type_in_all_cases": "in vivo", "key": {"[1]": {"system": "Orchid thrips (Dichromothrips corbetti)", "assay": "Orchid thrips, floral-immersion technique", "settings": "96 h, test concentration of 100 ppm, after 4 days, in comparison with untreated controls", "method": "Dichromothrips corbetti adults used for bioassay were obtained from a colony maintained continuously under laboratory conditions. For testing purposes, the test compound was diluted to a concentration of 300 ppm (wt compound: vol diluent) in a 1:1 mixture of acetone:water (vol:vol), plus 0.01 % vol/vol Kinetic® surfactant. Thrips potency of each compound was evaluated by using a floral-immersion technique. Plastic petri dishes were used as test arenas. All petals of individual, intact orchid flowers were dipped into treatment solution and allowed to dry. Treated flowers were placed into individual petri dishes along with 10 - 15 adult thrips. The petri dishes were then covered with lids. All test arenas were held under continuous light and a temperature of about 28°C for duration of the assay. After 4 days, the numbers of live thrips were counted on each flower, and along inner walls of each petri dish. The level of thrips mortality was extrapolated from pre-treatment thrips numbers."}, "[2]": {"system": "Southern Armyworm (Spodoptera eridania, 2nd instar larvae)", "assay": "Southern armyworm, sprayed lima bean plants", "settings": "96 h, test concentration of 500 ppm, 4 days after treatment, in comparison with untreated controls", "method": "The active compounds were formulated in cyclohexanone as a 10, 0000 ppm solution supplied in 1.3 ml ABgene® tubes. These tubes were inserted into an automated electrostatic sprayer equipped with an atomizing nozzle and they served as stock solutions for which lower dilutions were made in 50% acetone: 50% water (v/v). A nonionic surfactant (Kinetic®) was included in the solution at a volume of 0.01% (v/v). Lima bean plants (variety Sieva) were grown 2 plants to a pot and selected for treatment at the 1st true leaf stage. Test solutions were sprayed onto the foliage by an automated electrostatic plant sprayer equipped with an atomizing spray nozzle. The plants were dried in the sprayer fume hood and then removed from the sprayer. Each pot was placed into perforated plastic bags with a zip closure. Ten to 11 armyworm larvae were placed into the bag and the bags zipped closed. Test plants were maintained in a growth room at 25°C and 20-40% relative humidity for 4 days, avoiding direct exposure to fluorescent light (24 hour photoperiod) to prevent trapping of heat inside the bags. Mortality and reduced feeding were assessed 4 days after treatment, compared to untreated control plants."}, "[3]": {"system": "tobacco budworm (Heliothis virescens)", "assay": "Tobacco budworm control, insect diet in 96-well microtiter plates", "settings": "120 h", "method": "(§1) For evaluating control of tobacco budworm (Heliothis virescens) the test unit consists of 96-well-microtiter plates containing an insect diet and 15-25 H. virescens eggs. The compounds were formulated using a solution containing 75% v/v water and 25% v/v DMSO. Different concentrations of formulated compounds were sprayed onto the insect diet at 10 µl, using a custom built micro atomizer, at two replications. After application, microtiter plates were incubated at about 28 ± 1°C and about 80 ± 5 % relative humidity for 5 days. Egg and larval mortality was then visually assessed."}, "[4]": {"system": "Green Peach Aphid (Myzus persicae, mixed life stages)", "assay": "Green peach aphid, sprayed infested bell pepper plants", "settings": "120 h, test concentration of 1415 ppm, after 5 days, relative to mortality on untreated control plants", "source_text": "The active compounds were formulated in cyclohexanone as a 10,000 ppm solution supplied in tubes. The tubes were inserted into an automated electrostatic sprayer equipped with an atomizing nozzle and they served as stock solutions for which lower dilutions were made in 50% acetone:50% water (v/v). A nonionic surfactant (Kinetic®) was included in the solution at a volume of 0.01 % (v/v). Bell pepper plants at the first true-leaf stage were infested prior to treatment by placing heavily infested leaves from the main colony on top of the treatment plants. Aphids were allowed to transfer overnight to accomplish an infestation of 30-50 aphids per plant and the host leaves were removed. The infested plants were then sprayed by an automated electrostatic plant sprayer equipped with an atomizing spray nozzle. The plants were dried in the sprayer fume hood, removed, and then maintained in a growth room under fluorescent lighting in a 24-hr photoperiod at about 25°C and about 20-40% relative humidity. Aphid mortality on the treated plants, relative to mortality on untreated control plants, was determined after 5 days."}, "[5]": {"system": "Mediterranean fruitfly (Ceratitis capitata)", "assay": "Mediterranean fruitfly control, insect diet in microtiter plates", "settings": "120 h, test concentration of 1415 ppm, egg and larval mortality visually assessed after 5 days", "method": "as §1, with “Mediterranean fruitfly (Ceratitis capitata)” for “tobacco budworm (Heliothis virescens)”, “consisted” for “consists”, “microtiter” for “96-well-microtiter”, “50-80 C. capitata” for “15-25 H. virescens”, “5” for “10”"}, "[6]": {"system": "boll weevil (Anthonomus grandis)", "assay": "Boll weevil control, insect diet in 24-well microtiter plates", "settings": "120 h, test concentration of 1415 ppm, egg and larval mortality visually assessed after 5 days", "method": "as §1, with “boll weevil (Anthonomus grandis)” for “tobacco budworm (Heliothis virescens)”, “24-well-microtiter” for “96-well-microtiter”, “20-30 A. grandis” for “15-25 H. virescens”, “20” for “10”, “23” for “28”, “50” for “80”"}, "[7]": {"system": "vetch aphid (Megoura viciae)", "assay": "Vetch aphid control, broad bean leaf disks, contact or systemic", "settings": "foliar, 120 h, test concentration of 1415 ppm, aphid mortality visually assessed after 5 days"}, "[8]": {"system": "Rice brown plant hopper (Nilaparvata lugens)", "assay": "Rice brown plant hopper, sprayed potted rice seedlings", "settings": "test concentration of 500 ppm, after 72 hours, in comparison with untreated controls", "method": "Rice seedlings were cleaned and washed 24 hours before spraying. The active compounds were formulated in 50:50 acetone:water (vol:vol) and 0.1 % vol/vol surfactant (EL 620) was added. Potted rice seedlings were sprayed with 5 ml test solution, air dried, placed in cages and inoculated with 10 adults. Treated rice plants were kept at about 28-29°C and relative humidity of about 50-60%. Percent mortality was recorded after 72 hours."}}}
{"smiles": "CCS(CC)=NC(=O)c1ccc(-c2cccc(-c3c([O-])[n+](Cc4cnc(Cl)s4)c4c(C)cccn4c3=O)c2)cc1", "note": "[Compound C-1]", "values": [{"measurement": "mortality at 100 ppm", "setting": "[1]", "value": "≥ 75", "unit": "%"}, {"measurement": "mortality at 500 ppm", "setting": "[2]", "value": "≥ 75", "unit": "%"}, {"measurement": "mortality at 1415 ppm", "setting": "[3]", "value": "≥ 75", "unit": "%"}, {"measurement": "mortality at 1415 ppm", "setting": "[4]", "value": "≥ 75", "unit": "%"}, {"measurement": "mortality at 1415 ppm", "setting": "[5]", "value": "≥ 75", "unit": "%"}, {"measurement": "mortality at 1415 ppm", "setting": "[6]", "value": "≥ 75", "unit": "%"}]}
{"smiles": "CCS(CC)=NC(=O)c1cccc(-c2c([O-])[n+](Cc3ccc(Cl)nc3)c3ccccn3c2=O)c1", "note": "[Compound C-4, 1-[(6-chloro-3-pyridyl)methyl]-3-[3-[(diethyl-λ4-sulfanylidene)carbamoyl]phenyl]-4-oxo-pyrido[1,2-a]pyrimidin-1-ium-2-olate]", "values": [{"measurement": "mortality at 500 ppm", "setting": "[2]", "value": "≥ 75", "unit": "%"}]}
{"smiles": "CC(C)S(=NC(=O)c1cccc(-c2c([O-])[n+](Cc3ccc(Cl)nc3)c3ccccn3c2=O)c1)C(C)C", "note": "[Compound C-5]", "values": [{"measurement": "mortality at 500 ppm", "setting": "[2]", "value": "≥ 75", "unit": "%"}, {"measurement": "mortality at 1415 ppm", "setting": "[4]", "value": "≥ 75", "unit": "%"}]}
{"smiles": "CCS(=NC(=O)c1ccc(-c2cccc(-c3c([O-])[n+](Cc4ccc(Cl)nc4)c4ccccn4c3=O)c2)cc1)C1CC1", "note": "(centres unmarked) [Compound C-7]", "values": [{"measurement": "mortality at 1415 ppm", "setting": "[7]", "value": "≥ 75", "unit": "%"}, {"measurement": "mortality at 500 ppm", "setting": "[2]", "value": "≥ 75", "unit": "%"}, {"measurement": "mortality at 1415 ppm", "setting": "[4]", "value": "≥ 75", "unit": "%"}]}
{"smiles": "CC(C)S(=NC(=O)c1ccc(-c2cccc(-c3c([O-])[n+](Cc4ccc(Cl)nc4)c4ccccn4c3=O)c2)cc1)C(C)C", "note": "[Compound C-8]", "values": [{"measurement": "mortality at 500 ppm", "setting": "[2]", "value": "≥ 75", "unit": "%"}, {"measurement": "mortality at 1415 ppm", "setting": "[4]", "value": "≥ 75", "unit": "%"}]}
{"smiles": "CCS(CC)=NC(=O)c1cccc(-c2cc(-c3c([O-])[n+](Cc4ccc(Cl)nc4)c4ccccn4c3=O)ccc2OC)c1", "note": "[Compound C-9]", "values": [{"measurement": "mortality at 1415 ppm", "setting": "[4]", "value": "≥ 75", "unit": "%"}]}
{"smiles": "CCS(CC)=NC(=O)c1cccc(-c2cc(-c3c([O-])[n+](Cc4cnc(Cl)s4)c4c(C)cccn4c3=O)ccc2Cl)c1", "note": "[Compound C-10]", "values": [{"measurement": "mortality at 1415 ppm", "setting": "[4]", "value": "≥ 75", "unit": "%"}]}
{"smiles": "CCS(CC)=NC(=O)c1cccc(-c2cccc(-c3c([O-])[n+](Cc4ccc(Cl)nc4)c4ccccn4c3=O)c2)c1", "note": "[Compound C-11]", "values": [{"measurement": "mortality at 1415 ppm", "setting": "[4]", "value": "≥ 75", "unit": "%"}]}
{"smiles": "CCS(=NC(=O)c1cccc(-c2cccc(-c3c([O-])[n+](Cc4ccc(Cl)nc4)c4ccccn4c3=O)c2)c1)C1CC1", "note": "(centres unmarked) [Compound C-12]", "values": [{"measurement": "mortality at 1415 ppm", "setting": "[4]", "value": "≥ 75", "unit": "%"}]}
{"smiles": "CC(C)S(=NC(=O)c1cccc(-c2cccc(-c3c([O-])[n+](Cc4ccc(Cl)nc4)c4ccccn4c3=O)c2)c1)C(C)C", "note": "[Compound C-13]", "values": [{"measurement": "mortality at 1415 ppm", "setting": "[4]", "value": "≥ 75", "unit": "%"}, {"measurement": "mortality at 500 ppm", "setting": "[8]", "value": "≥ 75", "unit": "%"}]}
